Assay results from US20070287666A1, “Modulator of gamma-secretase” (priority 2006, published 2007).
Substitutions are numbered along the chain they refer to.

Experiments:
TMP21 = experiment: Western blotting of target protein expression after siRNA knockdown; type: cell-based, human; settings: whole cells; in words
Method: siRNA-based knockdowns of target proteins were performed as described, in HEK-293 or blastocyst-derived cells (30). The oligonucleotide sequences are available in Supplementary Information.
siRNA-based knockdowns of target proteins were carried out as described (30). […] As negative controls, we used a mixture of four pooled scrambled siRNAs and mock transfections without siRNA. The expression level of target proteins was monitored by Western blotting with polyclonal anti-TMP21 or anti-p24a antibodies. Each of the individual oligonucleotide pairs where independently shown to suppress the relevant target protein (FIG. 8).

γ-secretase [1] = experiment: Aβ assay (ELISA, immunoprecipitation-western blotting) of conditioned medium from whole cells; type: cell-based, human; settings: whole cells or cell-free γ-secretase assays; in words
Method: Aβ40 and Aβ42 levels were measured by ELISA and immunoprecipitation-western blotting as described previously, with the use of 12-24-h-conditioned medium collected from native HEK-293 cells or from HEK-293 cells stably overexpressing APP (APPswedish or APPwt) (3,24). They were resuspended in Assay Buffer (10 mM KOAc, 1.5 mM MgCl2, protease inhibitors (Roche), 75 mM sodium citrate, pH 6.4) and incubated at 0° C. or 37° C. for 2 or 4 hours (24). CHAPSO-solubilized membrane fractions from above cells were subjected to cell free γ-secretase assay as described below without addition of the C100-Flag substrate. Following adjustment to RIPA buffer, Aβ were captured by immmunoprecipitation with 6E10 antibody (Signet) and immunoblotted as described previously (24). ε-stubs were detected by Western blotting with anti-APP-CT antibody (Sigma).

ε-secretase = experiment: Cadherin processing assay; type: biochemical; settings: in words
Method: Notch and cadherin cleavage assays were performed as described previously (27, 29).
Cadherin processing assay: Assays were performed as previously described (29). Briefly, cells were resuspended in 0.5 ml/35-mm dish of hypotonic buffer (10 mM MOPS, pH 7.0, 10 mM KCl) and homogenized on ice. A post-nuclear supernatant was prepared by centrifugation at 1000×g for 15 minutes at 4° C. Crude membranes were isolated from the post-nuclear supernatant by centrifugation at 16,000×g for 40 minutes at 4° C. The membranes were then resuspended in 25 μl of assay buffer (150 mM sodium citrate, pH 6.4, 1× Complete protease inhibitor cocktail, Roche), and incubated at 37° C. for 4 hours in the presence or absence of γ-secretase inhibitor (L-685,458, 1 μM). Samples were then analyzed by immunoblotting using C32 anti-N-cadherin and C36 anti-E-cadherin antibodies (BD Transduction Laboratories).

γ-secretase [2] = molecular target: T1, γ-secretase (Homo sapiens, UniProt P49768); experiment: γ-secretase reconstituted in yeast, APPC1-55/Gal4 lacZ reporter assay; type: cell-based, S. cerevisiae; set-up: expressed in transfected cells; host or cells: S. cerevisiae (strains PMY1 and DEY1); settings: co-expression with PS1, NCT, APH-1, PEN-2; wt or V717I APP reporter; in words
Excerpt: Core γ-secretase enzyme activity of the mammalian CNS was reconstituted in S. cerevisiae by co-expression of human presenilin 1 (PS1), nicastrin (NCT), APH-1 and PEN-2 in accordance with the method described by Edbauer (12), with activity measured via endoproteolytic release of a Gal4 transcriptional activator from an APPC1-55 juxtamembrane region and trans activation of a β-galactosidase reporter gene. While a starting configuration performed slightly above the baseline of cells lacking γ-secretase subunits, non-fermentable carbon sources favoring oxidative metabolism increased output up to 100-fold and allowed profiling of the system. As in mammalian cells, activity was greater with wt PS1 than wt PS2, sensitive to missense mutations of APP substrate near the Aβ42 site, and was modulated by the membrane protein TMP21.
Besides the production of Aβ-related peptide fragments identified by mass spectroscopy, enzyme activity was measured via a transcriptional reporter assay wherein endoproteolysis of a membrane-tethered APPC1-55/Gal4 fusion protein results in the release of a Gal4 transcriptional activator capable of driving a reporter gene (lacZ) with a colorimetric output. Effect of TMP21, Erv25p and Emp24p on reporter activity and PS1 processing

γ-secretase [3] = molecular target: T1, γ-secretase; experiment: Cell-free γ-secretase assay with immunopurified PS1 complexes and C100-Flag substrate; type: biochemical; set-up: PS1 complex was isolated by immunoprecipitation from CHAPSO extracted membranes; endogenous in cells; host or cells: HEK-293 (also SHSY-5Y) CHAPSO-solubilized membranes, anti-PS1 (A4) immunoprecipitate; settings: exogenous protein added to immunopurified TMP21-deficient PS1 complexes; in words
Method: Cell-free γ-secretase assays with endogenous APP were performed on microsome membranes from HEK-293 cells stably over expressing APPswedish with or without TMP21 RNAi treatments as described previously (24). ε-stubs were detected by western blotting with anti-APP-CT antibody (Sigma). Cell-free γ-secretase assay was performed as described (7, 13), with exogenous APP-C100 as the substrate was performed with recombinant APP-C100 peptides, wherein PS1 complex was isolated by immunoprecipitation from CHAPSO extracted membranes and combined with the recombinant C100 substrate and the generation of Aβ is determined by ELISA and AICD production is monitored by western blotting. More particularly, the peptides were generated from a prokaryotic expression vector encoding the C-terminal 100 amino acids (596-695) of human APP (695-residue isoform) followed by Flag and His6 sequences (C100-Flag-His6). This was generated by PCR and cloning into pQE60 (Qiagen). […] The generated Aβ was analyzed by immunoblotting or ELISA (Biosource).
Solubilized γ-secretase was prepared as described (7,13). […] Following addition of the C100-Flag substrate (˜0.5 μM) to 50 μl of the solubilized γ-secretase preparation the reaction mixture was incubated for 6 hrs at 37° C. and Aβ products detected by ELISA and Western blotting. […]

p24a siRNA: p24a siRNA oligos (SEQ ID NO:12, 13) and p24a pooled oligos, Dharmacon (chain 1 AACCGGATGTCCACCATGACT; chain 2 ACAGAGCCATCAACGACAA; bought from Dharmacon, further chemistry not given here)
total cellular TMP21 levels / expression (TMP21): decrease
effect on Aβ production (γ-secretase [1]): no effect

CC(C)C[C@H](NC(=O)[C@H](Cc1ccccc1)C[C@@H](O)[C@H](Cc1ccccc1)NC(=O)OC(C)(C)C)C(=O)N[C@@H](Cc1ccccc1)C(N)=O [L685,458]
ε-cleavage of E-cadherin or N-cadherin substrates (CAD/CTF1) to CAD/CTF2 (ε-secretase): specifically inhibited

B1: TMP21: 219-amino-acid type 1 transmembrane protein, member of the p24 cargo-protein family (accession number Q9D1D4); expressed from cDNA (protein, UniProt Q9D1D4 32-219, looked up)
Transmembrane emp24 …: ISFHLPVNSRKCLREEIHKDLLVTGAYEITDQSGGAGGLRTHLKITDSAGHILYAKEDATKGKFAFTTEDYDMFEVCFESKGTGRIPDQLVILDMKHGVEAKNYEEIAKVEKLKPLEVELRRLEDLSESIVNDFAYMKKREEEMRDTNESTNTRVLYFSIFSMFCLIGLATWQVFYLRRFFKAKKLIE
lacZ reporter activity (γ-secretase [2]): markedly reduced
effect on Aβ production (γ-secretase [1]): no discernible effect

B2: TMP21-Flag: TMP21 tagged at the C terminus with the Flag epitope, immunopurified from HEK-293 cells (protein)
chain: B1 Transmembrane emp24 … with V7I, T30S, T41S, A55S
modifications: left off: small tags and cut ends
Aβ production after complementation of TMP21-deficient PS1 complexes (γ-secretase [3]): reverted to normal
